# Key:
# Test in all cases: IC50 for competition of protein binding to Kinobeads
# Details in all cases: assay detail: Kinobeads competition in P. falciparum blood-stage lysate
# UniProt O97241 = molecular target: UniProt O97241
# UniProt Q8IHZ9 = molecular target: UniProt Q8IHZ9
# UniProt Q8II71 = molecular target: UniProt Q8II71
# UniProt C6KTB3 = molecular target: UniProt C6KTB3
# UniProt O77381 = molecular target: UniProt O77381
# UniProt Q8IDQ9 = molecular target: UniProt Q8IDQ9
# UniProt C6KSQ1 = molecular target: UniProt C6KSQ1
# UniProt Q8I388 = molecular target: UniProt Q8I388
# UniProt Q8I5F9 = molecular target: UniProt Q8I5F9
# UniProt Q8I5D4 = molecular target: UniProt Q8I5D4
# UniProt Q8II13 = molecular target: UniProt Q8II13
# UniProt Q8IE85 = molecular target: UniProt Q8IE85
# UniProt Q8II01 = molecular target: UniProt Q8II01
# UniProt C6KSW5 = molecular target: UniProt C6KSW5
# UniProt Q8I395 = molecular target: UniProt Q8I395
# UniProt Q8I395, sequence (Q8I395 whole entry): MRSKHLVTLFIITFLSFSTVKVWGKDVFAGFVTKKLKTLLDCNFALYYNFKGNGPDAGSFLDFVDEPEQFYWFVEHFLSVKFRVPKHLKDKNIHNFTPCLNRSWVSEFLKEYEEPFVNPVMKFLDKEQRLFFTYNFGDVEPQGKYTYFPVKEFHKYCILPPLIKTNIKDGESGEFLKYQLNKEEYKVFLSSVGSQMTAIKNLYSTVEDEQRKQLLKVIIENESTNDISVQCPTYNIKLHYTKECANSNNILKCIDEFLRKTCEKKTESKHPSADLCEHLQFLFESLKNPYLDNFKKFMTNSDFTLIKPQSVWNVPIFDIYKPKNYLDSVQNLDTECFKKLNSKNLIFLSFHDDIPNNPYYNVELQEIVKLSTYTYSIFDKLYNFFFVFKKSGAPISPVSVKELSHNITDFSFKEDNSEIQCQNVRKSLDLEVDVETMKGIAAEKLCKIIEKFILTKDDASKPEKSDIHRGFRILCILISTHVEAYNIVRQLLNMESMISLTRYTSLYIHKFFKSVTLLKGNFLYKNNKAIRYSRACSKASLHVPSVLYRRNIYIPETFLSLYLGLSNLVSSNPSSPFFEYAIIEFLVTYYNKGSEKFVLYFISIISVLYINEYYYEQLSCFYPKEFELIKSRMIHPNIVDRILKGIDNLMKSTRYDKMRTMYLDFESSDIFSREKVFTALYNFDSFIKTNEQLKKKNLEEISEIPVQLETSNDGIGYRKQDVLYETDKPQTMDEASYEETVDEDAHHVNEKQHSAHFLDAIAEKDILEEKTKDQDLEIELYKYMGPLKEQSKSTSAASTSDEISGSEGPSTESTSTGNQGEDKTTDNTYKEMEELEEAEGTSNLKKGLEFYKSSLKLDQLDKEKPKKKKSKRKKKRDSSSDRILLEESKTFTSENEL
# UniProt Q8IJS1 = molecular target: UniProt Q8IJS1
# UniProt Q8II53 = molecular target: UniProt Q8II53
# UniProt Q8IL57 = molecular target: UniProt Q8IL57
# UniProt B9ZSI3 = molecular target: UniProt B9ZSI3
# UniProt Q8I5H9 = molecular target: UniProt Q8I5H9
# UniProt P61074 = molecular target: UniProt P61074
# UniProt P61074, sequence (P61074 whole entry): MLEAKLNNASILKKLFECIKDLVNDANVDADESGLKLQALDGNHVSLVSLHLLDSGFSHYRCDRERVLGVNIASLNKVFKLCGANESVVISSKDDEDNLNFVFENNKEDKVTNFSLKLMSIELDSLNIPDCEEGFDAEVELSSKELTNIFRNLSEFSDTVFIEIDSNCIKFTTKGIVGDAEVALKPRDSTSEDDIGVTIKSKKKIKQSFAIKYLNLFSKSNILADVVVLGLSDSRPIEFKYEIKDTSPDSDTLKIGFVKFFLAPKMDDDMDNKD
# UniProt Q8IAY9 = molecular target: UniProt Q8IAY9
# UniProt Q8ILZ3 = molecular target: UniProt Q8ILZ3
# UniProt Q8I574 = molecular target: UniProt Q8I574
# UniProt Q7KQK0 = molecular target: UniProt Q7KQK0
# UniProt Q8IIL0 = molecular target: UniProt Q8IIL0
# UniProt Q8IIL0, sequence (Q8IIL0 whole entry): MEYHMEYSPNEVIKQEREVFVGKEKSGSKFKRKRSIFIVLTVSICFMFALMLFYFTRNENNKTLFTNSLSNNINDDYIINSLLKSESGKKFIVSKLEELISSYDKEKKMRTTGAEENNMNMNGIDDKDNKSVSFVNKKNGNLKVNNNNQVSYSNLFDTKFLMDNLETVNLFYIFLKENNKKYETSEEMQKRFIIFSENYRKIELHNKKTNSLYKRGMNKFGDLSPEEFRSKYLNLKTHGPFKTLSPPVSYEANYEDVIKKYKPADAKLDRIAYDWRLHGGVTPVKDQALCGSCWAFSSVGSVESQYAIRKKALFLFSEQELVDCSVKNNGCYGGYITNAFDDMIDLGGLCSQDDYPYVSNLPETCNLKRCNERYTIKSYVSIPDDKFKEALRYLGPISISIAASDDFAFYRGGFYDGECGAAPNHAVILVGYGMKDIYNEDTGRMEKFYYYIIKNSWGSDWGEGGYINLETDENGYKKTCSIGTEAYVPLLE
# UniProt Q8II16 = molecular target: UniProt Q8II16
# UniProt Q8IE50 = molecular target: UniProt Q8IE50
# UniProt Q8ILT0 = molecular target: UniProt Q8ILT0
# UniProt Q8I3T9 = molecular target: UniProt Q8I3T9
# UniProt Q8IHP1 = molecular target: UniProt Q8IHP1
# UniProt Q8IAX8 = molecular target: UniProt Q8IAX8
# UniProt Q8IAX8, sequence (Q8IAX8 whole entry): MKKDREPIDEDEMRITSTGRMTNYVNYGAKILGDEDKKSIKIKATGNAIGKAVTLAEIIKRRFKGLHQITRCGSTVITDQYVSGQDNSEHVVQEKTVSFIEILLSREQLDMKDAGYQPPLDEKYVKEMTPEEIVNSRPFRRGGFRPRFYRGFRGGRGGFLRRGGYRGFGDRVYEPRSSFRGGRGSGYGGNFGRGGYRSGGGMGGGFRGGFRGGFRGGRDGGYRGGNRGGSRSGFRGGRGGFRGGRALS
# UniProt Q8I2F2 = molecular target: UniProt Q8I2F2
# UniProt Q8IDR9 = molecular target: UniProt Q8IDR9
# UniProt Q8ID28 = molecular target: UniProt Q8ID28
# UniProt C0H5J6 = molecular target: UniProt C0H5J6
# UniProt Q8I231 = molecular target: UniProt Q8I231
# UniProt Q7K6B0 = molecular target: UniProt Q7K6B0
# UniProt Q8I5T4 = molecular target: UniProt Q8I5T4
# UniProt C6S3E1 = molecular target: UniProt C6S3E1
# UniProt O77385 = molecular target: UniProt O77385
# UniProt O77390 = molecular target: UniProt O77390
# UniProt Q8IJI4 = molecular target: UniProt Q8IJI4
# UniProt Q8IIJ4 = molecular target: UniProt Q8IIJ4
# UniProt Q8IJT1 = molecular target: UniProt Q8IJT1
# UniProt P62344 = molecular target: UniProt P62344
# UniProt P62344, sequence (P62344 whole entry, looked up): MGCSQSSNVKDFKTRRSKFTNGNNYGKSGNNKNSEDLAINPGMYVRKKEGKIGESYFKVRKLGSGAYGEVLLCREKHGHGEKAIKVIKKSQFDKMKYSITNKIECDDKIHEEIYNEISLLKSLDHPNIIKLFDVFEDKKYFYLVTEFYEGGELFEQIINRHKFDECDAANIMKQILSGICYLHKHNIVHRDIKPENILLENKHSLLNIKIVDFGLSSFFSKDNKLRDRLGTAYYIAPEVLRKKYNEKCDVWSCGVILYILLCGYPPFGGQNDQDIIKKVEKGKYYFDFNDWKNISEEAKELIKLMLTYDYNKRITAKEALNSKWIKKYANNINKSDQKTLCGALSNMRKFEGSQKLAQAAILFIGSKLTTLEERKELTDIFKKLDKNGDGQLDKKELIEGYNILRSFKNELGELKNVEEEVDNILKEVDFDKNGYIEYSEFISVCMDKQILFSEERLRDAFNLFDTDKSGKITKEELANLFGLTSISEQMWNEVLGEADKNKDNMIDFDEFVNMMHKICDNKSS
# UniProt Q8IIH4 = molecular target: UniProt Q8IIH4
# UniProt Q8IBQ9 = molecular target: UniProt Q8IBQ9
# UniProt Q8IDV5 = molecular target: UniProt Q8IDV5
# UniProt Q8IDM3 = molecular target: UniProt Q8IDM3
# UniProt Q8IDZ2 = molecular target: UniProt Q8IDZ2
# 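Also: native unpurified kinases from lysate captured on beads bearing immobilized kinase inhibitors, with bead-bound kinases quantified by mass spectrometry across compound doses.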
# UniProt Q8IHZ9, sequence (Q8IHZ9 whole entry): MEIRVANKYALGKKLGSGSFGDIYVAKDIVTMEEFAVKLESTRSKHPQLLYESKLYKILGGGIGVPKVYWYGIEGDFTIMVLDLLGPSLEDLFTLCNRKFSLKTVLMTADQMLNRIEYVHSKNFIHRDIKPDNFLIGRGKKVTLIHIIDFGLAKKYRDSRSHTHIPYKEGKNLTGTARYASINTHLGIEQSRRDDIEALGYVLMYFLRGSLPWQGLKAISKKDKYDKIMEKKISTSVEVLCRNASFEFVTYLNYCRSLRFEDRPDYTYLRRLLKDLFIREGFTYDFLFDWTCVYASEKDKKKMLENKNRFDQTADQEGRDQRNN
# UniProt Q8IDQ9, sequence (Q8IDQ9 whole entry): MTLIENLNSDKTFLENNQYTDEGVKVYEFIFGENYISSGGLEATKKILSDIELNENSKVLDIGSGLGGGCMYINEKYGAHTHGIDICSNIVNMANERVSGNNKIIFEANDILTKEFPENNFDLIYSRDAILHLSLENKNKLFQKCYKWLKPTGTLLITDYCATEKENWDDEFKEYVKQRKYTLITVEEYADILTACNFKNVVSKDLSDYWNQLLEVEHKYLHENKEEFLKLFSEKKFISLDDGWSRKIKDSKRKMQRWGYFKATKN
structure (smiles),measurement,setting,value
O=c1[nH]c2ccc(Cl)cc2c(NC2CN3CCC2CC3)c1-c1nc2ccccc2[nH]1 (stereo unspecified) [CHIR-124],IC50,UniProt O97241,> 20 µM
same,IC50,UniProt Q8IHZ9,> 20 µM
same,IC50,UniProt Q8II71,> 20 µM
same,IC50,UniProt C6KTB3,> 20 µM
same,IC50,UniProt O77381,> 20 µM
same,IC50,UniProt Q8IDQ9,> 20 µM
same,IC50,UniProt C6KSQ1,299 nM
same,IC50,UniProt Q8I388,> 20 µM
same,IC50,UniProt Q8I5F9,> 20 µM
same,IC50,UniProt Q8I5D4,7.85 µM
same,IC50,UniProt Q8II13,> 20 µM
same,IC50,UniProt Q8IE85,> 20 µM
same,IC50,UniProt Q8II01,> 20 µM
same,IC50,UniProt C6KSW5,> 20 µM
same,IC50,UniProt Q8I395,> 20 µM
same,IC50,UniProt Q8IJS1,> 20 µM
same,IC50,UniProt Q8II53,> 20 µM
same,IC50,UniProt Q8IL57,> 20 µM
same,IC50,UniProt B9ZSI3,> 20 µM
same,IC50,UniProt Q8I5H9,14 µM
same,IC50,UniProt P61074,> 20 µM
same,IC50,UniProt Q8IAY9,> 20 µM
same,IC50,UniProt Q8ILZ3,> 20 µM
same,IC50,UniProt Q8I574,> 20 µM
same,IC50,UniProt Q7KQK0,850 nM
same,IC50,UniProt Q8IIL0,> 20 µM
same,IC50,UniProt Q8II16,> 20 µM
same,IC50,UniProt Q8IE50,> 20 µM
same,IC50,UniProt Q8ILT0,> 20 µM
same,IC50,UniProt Q8I3T9,> 20 µM
same,IC50,UniProt Q8IHP1,> 20 µM
same,IC50,UniProt Q8IAX8,> 20 µM
same,IC50,UniProt Q8I2F2,> 20 µM
same,IC50,UniProt Q8IDR9,> 20 µM
same,IC50,UniProt Q8ID28,> 20 µM
same,IC50,UniProt C0H5J6,> 20 µM
same,IC50,UniProt Q8I231,> 20 µM
same,IC50,UniProt Q7K6B0,> 20 µM
same,IC50,UniProt Q8I5T4,> 20 µM
same,IC50,UniProt C6S3E1,> 20 µM
same,IC50,UniProt O77385,> 20 µM
same,IC50,UniProt O77390,> 20 µM
same,IC50,UniProt Q8IJI4,> 20 µM
same,IC50,UniProt Q8IIJ4,> 20 µM
same,IC50,UniProt Q8IJT1,> 20 µM
same,IC50,UniProt P62344,< 82.3 nM
same,IC50,UniProt Q8IIH4,> 20 µM
same,IC50,UniProt Q8IBQ9,> 20 µM
same,IC50,UniProt Q8IDV5,> 20 µM
same,IC50,UniProt Q8IDM3,> 20 µM
same,IC50,UniProt Q8IDZ2,> 20 µM

# Reference: the supplement of paper PMC13386468
